In brackets after ≈: the same amount, converted by molar mass.
Key:
Assay in all cases: MIC, broth microdilution (NCCLS)
Format in all cases: cell-based
[1] = tested on: C. albicans GC3066 ATCC (Control); conditions: Candida albicans, Mueller-Hinton II broth, 18-22 hours at 35° C.
Procedure: (§1) Methods for in Vitro Antibacterial Evaluation
(§2) The Minimum Inhibitory Concentration (MIC)
(§3) Antimicrobial susceptibility testing. The in vitro activities of the antibiotics are determined by the broth microdilution method as recommended by the National Committee for Clinical Laboratory Standards (NCCLS) (1). Mueller-Hinton II broth (MHBII)(BBL Cockeysville, Md.) is the medium employed in the testing procedures. Microtiter plates containing serial dilutions of each antimicrobial agent are inoculated with each organism to yield the appropriate density (10^5 CFU/ml) in a 100 μl final volume. The plates are incubated for 18-22 hours at 35° C. in ambient air.
(§4) 1. NCCLS. 2000. Methods for Dilution Antimicrobial Susceptibility Tests for Bacteria That Grow Aerobically; Approved Standards: M7-A5, vol. 20. National Committe for Clinical Laboratory Standards, Wayne, Pa.

E. coli GC1073 (tet(B)) = conditions: Escherichia coli
Procedure: as §1, §2, §3, §4

[2] = tested on: E. coli GC2203 (ATCC Control); conditions: Escherichia coli, Mueller-Hinton II broth, 18-22 hours at 35° C.
Procedure: as §1, §2, §3, §4

E. coli GC2270 (tet(M)) = conditions: Escherichia coli
Procedure: as §1, §2, §3, §4

[3] = tested on: E. coli GC4559 (parent GC4560); conditions: Escherichia coli, Mueller-Hinton II broth, 18-22 hours at 35° C.
Procedure: as §1, §2, §3, §4

[4] = tested on: E. coli GC4560 (IMP mutant); conditions: Escherichia coli
Procedure: as §1, §2, §3, §4

[5] = tested on: E. faecalis GC2242 (Van-resistant); conditions: Enterococcus faecalis, Mueller-Hinton II broth, 18-22 hours at 35° C.
Procedure: as §1, §2, §3, §4

[6] = tested on: E. faecalis GC4555 (ATCC Control); conditions: Enterococcus faecalis, Mueller-Hinton II broth, 18-22 hours at 35° C.
Procedure: as §1, §2, §3, §4

[7] = tested on: H. influenzae<> GC6896 (ATCC Control); conditions: Haemophilus influenzae, Mueller-Hinton II broth, 18-22 hours at 35° C.
Procedure: as §1, §2, §3, §4

[8] = tested on: M. catarrhalis* GC6907 (Clinical); conditions: Moraxella catarrhalis, Mueller-Hinton II broth, 18-22 hours at 35° C.
Procedure: as §1, §2, §3, §4

[9] = tested on: S. aureus GC1079 (tet(K)); conditions: Staphylococcus aureus, Mueller-Hinton II broth, 18-22 hours at 35° C.
Procedure: as §1, §2, §3, §4

[10] = tested on: S. aureus GC1131 (Clinical); conditions: Staphylococcus aureus, Mueller-Hinton II broth, 18-22 hours at 35° C.
Procedure: as §1, §2, §3, §4

[11] = tested on: S. aureus GC2216 (ATCC Control); conditions: Staphylococcus aureus, Mueller-Hinton II broth, 18-22 hours at 35° C.
Procedure: as §1, §2, §3, §4

[12] = tested on: S. aureus GC4536 (Smith MP -In Vivo); conditions: Staphylococcus aureus, Mueller-Hinton II broth, 18-22 hours at 35° C.
Procedure: as §1, §2, §3, §4

[13] = tested on: S. aureus GC6466 (tet(M)); conditions: Staphylococcus aureus, Mueller-Hinton II broth, 18-22 hours at 35° C.
Procedure: as §1, §2, §3, §4

[14] = tested on: S. pneumoniae* GC1894 (Clinical); conditions: Streptococcus pneumoniae, Mueller-Hinton II broth, 18-22 hours at 35° C.
Procedure: as §1, §2, §3, §4

[15] = tested on: S. pneumoniae* GC4465 (Clinical); conditions: Streptococcus pneumoniae, Mueller-Hinton II broth, 18-22 hours at 35° C.
Procedure: as §1, §2, §3, §4

[16] = tested on: S. pyogenes* GC4563 (Clinical); conditions: Streptococcus pyogenes, Mueller-Hinton II broth, 18-22 hours at 35° C.
Procedure: as §1, §2, §3, §4

Structure (SMILES) | MIC [1] | MIC (E. coli GC1073 (tet(B))) | MIC [2] | MIC (E. coli GC2270 (tet(M))) | MIC [3] | MIC [4] | MIC [5] | MIC [6] | MIC [7] | MIC [8] | MIC [9] | MIC [10] | MIC [11] | MIC [12] | MIC [13] | MIC [14] | MIC [15] | MIC [16]
COc1ccc(/C=C/c2nc3cc(N(C)C)c4c(c3o2)C(=O)C2=C(O)[C@]3(O)C(=O)C(C(N)=O)=C(O)[C@@H](N(C)C)[C@@H]3C[C@@H]2C4)cc1 [Example 26, (6aR,7aS,8S,11aS)-5,8-bis(dimethylamino)-9,11a,12-trihydroxy-2-[(E)-2-(4-methoxyphenyl)ethenyl]-11,13-dioxo-6,6a,7,7a,8,11,11a,13-octahydrotetraceno[2,1-d][1,3]oxazole-10-carboxamide] | > 64 µg/mL | > 64 µg/mL | > 64 µg/mL | > 64 µg/mL | > 64 µg/mL | 32 µg/mL (≈ 52.1 µM) | 16 µg/mL (≈ 26 µM) | 32 µg/mL (≈ 52.1 µM) | > 64 µg/mL | > 64 µg/mL | 32 µg/mL (≈ 52.1 µM) | 16 µg/mL (≈ 26 µM) | 16 µg/mL (≈ 26 µM) | 32 µg/mL (≈ 52.1 µM) | 16 µg/mL (≈ 26 µM) | > 64 µg/mL | > 64 µg/mL | 64 µg/mL (≈ 104 µM)
COc1cccc(/C=C/c2nc3cc(N(C)C)c4c(c3o2)C(=O)C2=C(O)[C@]3(O)C(=O)C(C(N)=O)=C(O)[C@@H](N(C)C)[C@@H]3C[C@@H]2C4)c1 [Example 27, (6aR,7aS,8S,11aS)-5,8-bis(dimethylamino)-9,11a,12-trihydroxy-2-[(E)-2-(3-methoxyphenyl)ethenyl]-11,13-dioxo-6,6a,7,7a,8,11,11a,13-octahydrotetraceno[2,1-d][1,3]oxazole-10-carboxamide] | > 64 µg/mL | > 64 µg/mL | > 64 µg/mL | > 64 µg/mL | > 64 µg/mL | 32 µg/mL (≈ 52.1 µM) | 8 µg/mL (≈ 13 µM) | 16 µg/mL (≈ 26 µM) | > 64 µg/mL | > 64 µg/mL | 8 µg/mL (≈ 13 µM) | 8 µg/mL (≈ 13 µM) | 8 µg/mL (≈ 13 µM) | 16 µg/mL (≈ 26 µM) | 16 µg/mL (≈ 26 µM) | 64 µg/mL (≈ 104 µM) | 64 µg/mL (≈ 104 µM) | 64 µg/mL (≈ 104 µM)
COc1ccccc1/C=C/c1nc2cc(N(C)C)c3c(c2o1)C(=O)C1=C(O)[C@]2(O)C(=O)C(C(N)=O)=C(O)[C@@H](N(C)C)[C@@H]2C[C@@H]1C3 [Example 28, (6aR,7aS,8S,11aS)-5,8-bis(dimethylamino)-9,11a,12-trihydroxy-2-[(E)-2-(2-methoxyphenyl)ethenyl]-11,13-dioxo-6,6a,7,7a,8,11,11a,13-octahydrotetraceno[2,1-d][1,3]oxazole-10-carboxamide] | > 64 µg/mL | > 64 µg/mL | > 64 µg/mL | > 64 µg/mL | > 64 µg/mL | 16 µg/mL (≈ 26 µM) | 8 µg/mL (≈ 13 µM) | 16 µg/mL (≈ 26 µM) | > 64 µg/mL | 64 µg/mL (≈ 104 µM) | 16 µg/mL (≈ 26 µM) | 8 µg/mL (≈ 13 µM) | 8 µg/mL (≈ 13 µM) | 16 µg/mL (≈ 26 µM) | 8 µg/mL (≈ 13 µM) | 64 µg/mL (≈ 104 µM) | 32 µg/mL (≈ 52.1 µM) | 16 µg/mL (≈ 26 µM)
CN(C)c1cc2nc(/C=C/c3ccc(F)cc3)oc2c2c1C[C@H]1C[C@H]3[C@H](N(C)C)C(O)=C(C(N)=O)C(=O)[C@@]3(O)C(O)=C1C2=O [Example 29, (6aR,7aS,8S,11aS)-5,8-bis(dimethylamino)-2-[(E)-2-(4-fluorophenyl)ethenyl]-9,11a,12-trihydroxy-11,13-dioxo-6,6a,7,7a,8,11,11a,13-octahydrotetraceno[2,1-d][1,3]oxazole-10-carboxamide] | > 64 µg/mL | > 64 µg/mL | > 64 µg/mL | > 64 µg/mL | > 64 µg/mL | 8 µg/mL (≈ 13.3 µM) | 8 µg/mL (≈ 13.3 µM) | 8 µg/mL (≈ 13.3 µM) | > 64 µg/mL | 16 µg/mL (≈ 26.6 µM) | 8 µg/mL (≈ 13.3 µM) | 8 µg/mL (≈ 13.3 µM) | 8 µg/mL (≈ 13.3 µM) | 8 µg/mL (≈ 13.3 µM) | 8 µg/mL (≈ 13.3 µM) | 32 µg/mL (≈ 53.1 µM) | 32 µg/mL (≈ 53.1 µM) | 16 µg/mL (≈ 26.6 µM)
CN(C)c1cc2nc(/C=C/c3ccccc3F)oc2c2c1C[C@H]1C[C@H]3[C@H](N(C)C)C(O)=C(C(N)=O)C(=O)[C@@]3(O)C(O)=C1C2=O [Example 30, (6aR,7aS,8S,11aS)-5,8-bis(dimethylamino)-2-[(E)-2-(2-fluorophenyl)ethenyl]-9,11a,12-trihydroxy-11,13-dioxo-6,6a,7,7a,8,11,11a,13-octahydrotetraceno[2,1-d][1,3]oxazole-10-carboxamide] | > 64 µg/mL | > 64 µg/mL | > 64 µg/mL | > 64 µg/mL | > 64 µg/mL | 8 µg/mL (≈ 13.3 µM) | 4 µg/mL (≈ 6.64 µM) | 8 µg/mL (≈ 13.3 µM) | > 64 µg/mL | 32 µg/mL (≈ 53.1 µM) | 8 µg/mL (≈ 13.3 µM) | 4 µg/mL (≈ 6.64 µM) | 4 µg/mL (≈ 6.64 µM) | 8 µg/mL (≈ 13.3 µM) | 8 µg/mL (≈ 13.3 µM) | 16 µg/mL (≈ 26.6 µM) | 16 µg/mL (≈ 26.6 µM) | 16 µg/mL (≈ 26.6 µM)
CN(C)c1cc2nc(-c3ccc(C(C)(C)C)cc3)oc2c2c1C[C@H]1C[C@H]3[C@H](N(C)C)C(O)=C(C(N)=O)C(=O)[C@@]3(O)C(O)=C1C2=O [Example 31, (6aR,7aS,8S,11aS)-2-(4-tert-butylphenyl)-5,8-bis(dimethylamino)-9,11a,12-trihydroxy-11,13-dioxo-6,6a,7,7a,8,11,11a,13-octahydrotetraceno[2,1-d][1,3]oxazole-10-carboxamide] | > 64 µg/mL | > 64 µg/mL | > 64 µg/mL | > 64 µg/mL | > 64 µg/mL | 4 µg/mL (≈ 6.51 µM) | 8 µg/mL (≈ 13 µM) | 8 µg/mL (≈ 13 µM) | > 64 µg/mL | 16 µg/mL (≈ 26 µM) | 8 µg/mL (≈ 13 µM) | 8 µg/mL (≈ 13 µM) | 8 µg/mL (≈ 13 µM) | 8 µg/mL (≈ 13 µM) | 4 µg/mL (≈ 6.51 µM) | 8 µg/mL (≈ 13 µM) | 8 µg/mL (≈ 13 µM) | 8 µg/mL (≈ 13 µM)
CN(C)c1cc2nc(-c3ccncc3)oc2c2c1C[C@H]1C[C@H]3[C@H](N(C)C)C(O)=C(C(N)=O)C(=O)[C@@]3(O)C(O)=C1C2=O [Example 33, (6aR,7aS,8S,11aS)-5,8-bis(dimethylamino)-9,11a,12-trihydroxy-11,13-dioxo-2-pyridin-4-yl-6,6a,7,7a,8,11,11a,13-octahydrotetraceno[2,1-d][1,3]oxazole-10-carboxamide] | > 64 µg/mL | > 64 µg/mL | 64 µg/mL (≈ 114 µM) | > 64 µg/mL | > 64 µg/mL | 16 µg/mL (≈ 28.6 µM) | 16 µg/mL (≈ 28.6 µM) | 16 µg/mL (≈ 28.6 µM) | 32 µg/mL (≈ 57.2 µM) | 8 µg/mL (≈ 14.3 µM) | 16 µg/mL (≈ 28.6 µM) | 16 µg/mL (≈ 28.6 µM) | 16 µg/mL (≈ 28.6 µM) | 16 µg/mL (≈ 28.6 µM) | 32 µg/mL (≈ 57.2 µM) | 32 µg/mL (≈ 57.2 µM) | 16 µg/mL (≈ 28.6 µM) | 8 µg/mL (≈ 14.3 µM)
CN(C)c1cc2nc(-c3cccnc3)oc2c2c1C[C@H]1C[C@H]3[C@H](N(C)C)C(O)=C(C(N)=O)C(=O)[C@@]3(O)C(O)=C1C2=O [Example 34, (6aR,7aS,8S,11aS)-5,8-bis(dimethylamino)-9,11a,12-trihydroxy-11,13-dioxo-2-pyridin-3-yl-6,6a,7,7a,8,11,11a,13-octahydrotetraceno[2,1-d][1,3]oxazole-10-carboxamide] | > 64 µg/mL | > 64 µg/mL | > 64 µg/mL | > 64 µg/mL | > 64 µg/mL | 32 µg/mL (≈ 57.2 µM) | 32 µg/mL (≈ 57.2 µM) | 32 µg/mL (≈ 57.2 µM) | > 64 µg/mL | 16 µg/mL (≈ 28.6 µM) | 32 µg/mL (≈ 57.2 µM) | 32 µg/mL (≈ 57.2 µM) | 32 µg/mL (≈ 57.2 µM) | 64 µg/mL (≈ 114 µM) | 64 µg/mL (≈ 114 µM) | 64 µg/mL (≈ 114 µM) | 32 µg/mL (≈ 57.2 µM) | 32 µg/mL (≈ 57.2 µM)
